Test results: patent publication US9006487B2, “Amine-containing lipids and uses thereof” (Massachusetts Institute of Technology, priority 2005, dated 2015)
Values joined by “and” are separate entries in the source; they are usually repeats but may differ in a detail not shown here. Identical values can stand only once.

Tests used:
[1] = DNA delivery: raw luciferase expression (relative light units) of best-transfecting lipids; type: cell-based; conditions: 300 ng of DNA per well
Experimental: Raw values for luciferase expression (relative lights units) of best-transfecting lipids at lipid/DNA (w/w) ratios listed. 300 ng of DNA was added per well.

cos-7 cells = assay: DNA transfection: luciferase expression relative to Lipofectamine 2000; type: cell-based; conditions: for luciferase expression (second part of table, values relative to LIPO2000): 300 ng of DNA per well
How it was run: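 Lipid/DNA complexes, 300 ng luciferase DNA per well at 2.5-25 w/w lipid:DNA, were formed in sodium acetate/Optimem and added to overnight-seeded cos-7 cells. Luciferase was measured by Bright-Glo luminescence after 48 hours and quantified against an enzyme standard curve. Values are expressed as % of Lipofectamine 2000 at 2.5 w/w.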

[2] = 1st column, no head printed (2.5 w/w by the raw values)
[3] = 2nd column, no head printed (5 w/w by the raw values)
[4] = 3rd column, no head printed (10 w/w by the raw values)
[5] = 4th column, no head printed (15 w/w by the raw values)

Structure (SMILES) | Raw values for luciferase expression ([1]; lipid/DNA 2.5 w/w) | Raw values for luciferase expression ([1]; lipid/DNA 5 w/w) | Raw values for luciferase expression ([1]; lipid/DNA 10 w/w) [relative lights units] | Raw values for luciferase expression ([1]; lipid/DNA 15 w/w) [relative lights units] | luciferase expression (second part of table, values relative to LIPO2000) (cos-7 cells; lipid/DNA 2.5 w/w) | luciferase expression (second part of table, values relative to LIPO2000) (cos-7 cells; lipid/DNA 5 w/w) | luciferase expression (second part of table, values relative to LIPO2000) (cos-7 cells; lipid/DNA 10 w/w) | luciferase expression (second part of table, values relative to LIPO2000) (cos-7 cells; lipid/DNA 15 w/w) | luciferase expression (second part of table, values relative to LIPO2000) (cos-7 cells; lipid/DNA 20 w/w) | luciferase expression (second part of table, values relative to LIPO2000) (cos-7 cells; lipid/DNA 25 w/w) | luciferase expression, second set of columns (replicate set of data) (cos-7 cells; [2]) | luciferase expression, second set of columns (replicate set of data) (cos-7 cells; [3]) | luciferase expression, second set of columns (replicate set of data) (cos-7 cells; [4]) | luciferase expression, second set of columns (replicate set of data) (cos-7 cells; [5])
CCCCCCCCCCCCNC(=O)CCN(CCCCCCO)CCC(=O)NCCCCCCCCCCCC [ND36] | 4517622 relative lights units | 2945357 relative lights units | 2043526 | 658985 | 135.5 | 72.8 | 84.3 | 31.6 | 0.8 | 0.0 | – | – | – | –
CCCCCCCCCCCCNC(=O)CCN(CCCO)CCC(=O)NCCCCCCCCCCCC [ND20] | 6868960 relative lights units and 7521540 relative lights units | – | – | – | 278.4 | 278.1 | 0.2 | 0.1 | 0.0 | 0.0 | 84.9 | 5.5 | 0.1 | 0.0
CCCCCCCCCCCCCCNC(=O)CCN(CCO)CCN(CCO)CCC(=O)NCCCCCCCCCCCCCC [NF103] | – | – | 2886271 | 772518 | 183.1 | 23.6 | 0.0 | 0.0 | – | – | 66.2 | 51.3 | 0.6 | 0.0
CCCCCCCCCCCCCCCCNC(=O)CCN(CCO)CCN(CCO)CCC(=O)NCCCCCCCCCCCCCCCC [NP103] | 8798627 relative lights units | 308844 relative lights units | – | – | 83.0 | 2.8 | 0.0 | 1.5 | – | – | 2.1 | 2.3 | 3.8 | 1.4
CCCCCCCCCCCCCCNC(=O)CCN(CCCN(CCO)CCO)CCC(=O)NCCCCCCCCCCCCCC [NF87] | 3904993 relative lights units | 3436007 relative lights units | – | – | 46.1 | 44.8 | 0.3 | 0.0 | – | – | – | – | – | –
CCCCCCCCCCCCCCNC(=O)CCN(C)CCN(CCC(=O)NCCCCCCCCCCCCCC)CCC(=O)NCCCCCCCCCCCCCC [NF95] | – | 2082965 relative lights units and 3775212 relative lights units | 1906488 | 918612 | 131.6 | 141.8 | 100.5 | 33.9 | – | – | 6.0 | 9.4 | 4.7 | 12.1
CCCCCCCCCCCCCCNC(=O)CCN(CCO)CCN(CCC(=O)NCCCCCCCCCCCCCC)CCC(=O)NCCCCCCCCCCCCCC [NF109] | – | – | 1151621 | 108854 | 205.2 | 46.2 | 1.7 | 0.0 | – | – | 74.5 | 22.5 | 3.9 | 1.6
